Experimental data from the NIST ThermoML archive (doi:10.1016/j.jct.2019.01.021).
Values joined by “and” are separate entries in the source; they are usually repeats but may differ in a detail not shown here. Equal entries are not always repeated.

Assay: molar heat capacity at constant pressure
Settings: 101.33 kPa, Small (less than 1 g) adiabatic calorimetry

N.NS(=O)(=O)O [ammonium sulfamate]
Settings | molar heat capacity at constant pressure
187.31 K, Crystal 2 | 118.02 J/K/mol
188.37 K, Crystal 2 | 118.34 J/K/mol
189.42 K, Crystal 2 | 118.66 J/K/mol
190 K, Crystal 2 | 119.06 J/K/mol
190.47 K, Crystal 2 | 118.99 J/K/mol
191.52 K, Crystal 2 | 119.43 J/K/mol
192.57 K, Crystal 2 | 119.89 J/K/mol
193.62 K, Crystal 2 | 120.26 J/K/mol
194.67 K, Crystal 2 | 120.69 J/K/mol
195.72 K, Crystal 2 | 121.06 J/K/mol
196.77 K, Crystal 2 | 121.57 J/K/mol
197.82 K, Crystal 2 | 122.07 J/K/mol
198.87 K, Crystal 2 | 122.46 J/K/mol
199.92 K, Crystal 2 | 122.56 J/K/mol
200 K, Crystal 2 | 122.64 J/K/mol
200.85 K, Crystal 2 | 122.86 J/K/mol
201.65 K, Crystal 2 | 123.16 J/K/mol
202.45 K, Crystal 2 | 123.44 J/K/mol
203.24 K, Crystal 2 | 123.74 J/K/mol
204.05 K, Crystal 2 | 123.89 J/K/mol
204.85 K, Crystal 2 | 124.1 J/K/mol
205.65 K, Crystal 2 | 124.38 J/K/mol
206.45 K, Crystal 2 | 124.7 J/K/mol
207.25 K, Crystal 2 | 124.92 J/K/mol
208.05 K, Crystal 2 | 125.1 J/K/mol
208.86 K, Crystal 2 | 125.38 J/K/mol
209.66 K, Crystal 2 | 125.69 J/K/mol
210 K, Crystal 2 | 125.96 J/K/mol
210.46 K, Crystal 2 | 125.83 J/K/mol
211.26 K, Crystal 2 | 126.04 J/K/mol
212.07 K, Crystal 2 | 126.32 J/K/mol
212.87 K, Crystal 2 | 126.64 J/K/mol
213.68 K, Crystal 2 | 127 J/K/mol
214.48 K, Crystal 2 | 127.38 J/K/mol
215.28 K, Crystal 2 | 127.75 J/K/mol
216.09 K, Crystal 2 | 127.78 J/K/mol
216.9 K, Crystal 2 | 127.98 J/K/mol
217.7 K, Crystal 2 | 128.19 J/K/mol
218.51 K, Crystal 2 | 128.52 J/K/mol
219.31 K, Crystal 2 | 128.78 J/K/mol
220 K, Crystal 2 | 129.21 J/K/mol
220.12 K, Crystal 2 | 129.04 J/K/mol
220.93 K, Crystal 2 | 129.3 J/K/mol
221.73 K, Crystal 2 | 129.49 J/K/mol
222.54 K, Crystal 2 | 129.74 J/K/mol
223.35 K, Crystal 2 | 130.02 J/K/mol
224.16 K, Crystal 2 | 130.26 J/K/mol
224.97 K, Crystal 2 | 130.53 J/K/mol
225.78 K, Crystal 2 | 130.71 J/K/mol
226.59 K, Crystal 2 | 130.98 J/K/mol
227.4 K, Crystal 2 | 131.32 J/K/mol
228.21 K, Crystal 2 | 131.61 J/K/mol
229.02 K, Crystal 2 | 131.83 J/K/mol
229.83 K, Crystal 2 | 132.08 J/K/mol
230 K, Crystal 2 | 132.37 J/K/mol
230.64 K, Crystal 2 | 132.31 J/K/mol
231.45 K, Crystal 2 | 132.78 J/K/mol
232.27 K, Crystal 2 | 133.46 J/K/mol
233.08 K, Crystal 2 | 133.22 J/K/mol
233.89 K, Crystal 2 | 133.51 J/K/mol
234.71 K, Crystal 2 | 133.83 J/K/mol
235.52 K, Crystal 2 | 134.25 J/K/mol
236.33 K, Crystal 2 | 134.61 J/K/mol
237.15 K, Crystal 2 | 134.97 J/K/mol
237.96 K, Crystal 2 | 135.18 J/K/mol
238.78 K, Crystal 2 | 135.77 J/K/mol
239.59 K, Crystal 2 | 135.43 J/K/mol
240 K, Crystal 2 | 135.44 J/K/mol
240.41 K, Crystal 2 | 136.44 J/K/mol
241.22 K, Crystal 2 | 136.59 J/K/mol
242.04 K, Crystal 2 | 136.32 J/K/mol
242.86 K, Crystal 2 | 137.27 J/K/mol
243.68 K, Crystal 2 | 137.4 J/K/mol
244.44 K, Crystal 2 | 137.03 J/K/mol
244.5 K, Crystal 2 | 136.97 J/K/mol
244.81 K, Crystal 2 | 137.21 J/K/mol
244.94 K, Crystal 2 | 137.26 J/K/mol
245.31 K, Crystal 2 | 136.68 J/K/mol
245.38 K, Crystal 2 | 137.26 J/K/mol
245.44 K, Crystal 2 | 137.55 J/K/mol
245.94 K, Crystal 2 | 137.54 J/K/mol
245.96 K, Crystal 2 | 137.42 J/K/mol
246.13 K, Crystal 2 | 137.45 J/K/mol
246.46 K, Crystal 2 | 137.69 J/K/mol
246.53 K, Crystal 2 | 137.6 J/K/mol
246.95 K, Crystal 2 | 137.65 J/K/mol
246.96 K, Crystal 2 | 137.71 J/K/mol
247.11 K, Crystal 2 | 137.65 J/K/mol
247.46 K, Crystal 2 | 137.8 J/K/mol
247.68 K, Crystal 2 | 138 J/K/mol
247.77 K, Crystal 2 | 137.93 J/K/mol
247.97 K, Crystal 2 | 138.06 J/K/mol
248.25 K, Crystal 2 | 138.01 J/K/mol
248.47 K, Crystal 2 | 138.27 J/K/mol
248.59 K, Crystal 2 | 138.16 J/K/mol
248.83 K, Crystal 2 | 138.31 J/K/mol
248.98 K, Crystal 2 | 138.36 J/K/mol
249.41 K, Crystal 2 | 138.87 J/K/mol
249.42 K, Crystal 2 | 138.7 J/K/mol
249.48 K, Crystal 2 | 138.72 J/K/mol
249.98 K, Crystal 2 | 139.15 J/K/mol and 138.93 J/K/mol
250.24 K, Crystal 2 | 139.23 J/K/mol
250.49 K, Crystal 2 | 139.26 J/K/mol
250.56 K, Crystal 2 | 139.43 J/K/mol
250.99 K, Crystal 2 | 139.62 J/K/mol
251.06 K, Crystal 2 | 139.79 J/K/mol
251.14 K, Crystal 2 | 139.9 J/K/mol
251.5 K, Crystal 2 | 140.25 J/K/mol
251.71 K, Crystal 2 | 140.3 J/K/mol
251.88 K, Crystal 2 | 140.46 J/K/mol
252 K, Crystal 2 | 140.41 J/K/mol
252.28 K, Crystal 2 | 140.89 J/K/mol
252.51 K, Crystal 2 | 140.56 J/K/mol
252.7 K, Crystal 2 | 140.98 J/K/mol
252.86 K, Crystal 2 | 141.23 J/K/mol
253.02 K, Crystal 2 | 141.02 J/K/mol
253.43 K, Crystal 2 | 141.89 J/K/mol
253.52 K, Crystal 2 | 141.72 J/K/mol and 141.4 J/K/mol
254.01 K, Crystal 2 | 143.16 J/K/mol
254.03 K, Crystal 2 | 142.77 J/K/mol
254.34 K, Crystal 2 | 145.58 J/K/mol
254.54 K, Crystal 1 | 146.89 J/K/mol
254.58 K, Crystal 1 | 148.65 J/K/mol
255.05 K, Crystal 1 | 140.26 J/K/mol
255.16 K, Crystal 1 | 140.01 J/K/mol
255.17 K, Crystal 1 | 141.54 J/K/mol
255.56 K, Crystal 1 | 139.82 J/K/mol
255.74 K, Crystal 1 | 139.92 J/K/mol
256 K, Crystal 1 | 139.89 J/K/mol
256.07 K, Crystal 1 | 140.15 J/K/mol
256.32 K, Crystal 1 | 140.33 J/K/mol
256.58 K, Crystal 1 | 140.36 J/K/mol
256.83 K, Crystal 1 | 140.15 J/K/mol
256.9 K, Crystal 1 | 140.4 J/K/mol
257.09 K, Crystal 1 | 140.26 J/K/mol
257.48 K, Crystal 1 | 140.61 J/K/mol
257.6 K, Crystal 1 | 140.56 J/K/mol
257.65 K, Crystal 1 | 140.39 J/K/mol
258.06 K, Crystal 1 | 140.66 J/K/mol
258.1 K, Crystal 1 | 140.61 J/K/mol
258.48 K, Crystal 1 | 140.51 J/K/mol
258.61 K, Crystal 1 | 140.63 J/K/mol
258.65 K, Crystal 1 | 140.92 J/K/mol
259.12 K, Crystal 1 | 140.78 J/K/mol
259.23 K, Crystal 1 | 140.91 J/K/mol
259.3 K, Crystal 1 | 140.91 J/K/mol
259.63 K, Crystal 1 | 141.01 J/K/mol
259.81 K, Crystal 1 | 141.1 J/K/mol
260 K, Crystal 1 | 141.26 J/K/mol
260.12 K, Crystal 1 | 141.07 J/K/mol
260.15 K, Crystal 1 | 141.06 J/K/mol
260.39 K, Crystal 1 | 141.17 J/K/mol
260.66 K, Crystal 1 | 141.25 J/K/mol
260.95 K, Crystal 1 | 141.34 J/K/mol
260.97 K, Crystal 1 | 141.54 J/K/mol
261.17 K, Crystal 1 | 141.38 J/K/mol
261.55 K, Crystal 1 | 141.5 J/K/mol
261.68 K, Crystal 1 | 141.47 J/K/mol
261.77 K, Crystal 1 | 141.54 J/K/mol
262.13 K, Crystal 1 | 141.71 J/K/mol
262.19 K, Crystal 1 | 141.78 J/K/mol
262.61 K, Crystal 1 | 141.89 J/K/mol
262.71 K, Crystal 1 | 141.89 J/K/mol
262.73 K, Crystal 1 | 141.96 J/K/mol
263.3 K, Crystal 1 | 141.95 J/K/mol
263.44 K, Crystal 1 | 142.09 J/K/mol
264.27 K, Crystal 1 | 142.38 J/K/mol
265.1 K, Crystal 1 | 142.55 J/K/mol
265.93 K, Crystal 1 | 142.78 J/K/mol
266.76 K, Crystal 1 | 143.13 J/K/mol
267.59 K, Crystal 1 | 143.22 J/K/mol
268.42 K, Crystal 1 | 143.39 J/K/mol
269.25 K, Crystal 1 | 143.62 J/K/mol
270 K, Crystal 1 | 144.09 J/K/mol
270.08 K, Crystal 1 | 143.91 J/K/mol
270.91 K, Crystal 1 | 144.17 J/K/mol
271.74 K, Crystal 1 | 144.43 J/K/mol
272.58 K, Crystal 1 | 144.63 J/K/mol
273.41 K, Crystal 1 | 144.84 J/K/mol
274.25 K, Crystal 1 | 145.06 J/K/mol
275.08 K, Crystal 1 | 145.36 J/K/mol
275.94 K, Crystal 1 | 145.56 J/K/mol
276.77 K, Crystal 1 | 145.78 J/K/mol
277.6 K, Crystal 1 | 145.99 J/K/mol
278.44 K, Crystal 1 | 146.2 J/K/mol
279.28 K, Crystal 1 | 146.42 J/K/mol
280 K, Crystal 1 | 146.75 J/K/mol
280.11 K, Crystal 1 | 146.67 J/K/mol
280.95 K, Crystal 1 | 147.01 J/K/mol
281.79 K, Crystal 1 | 147.27 J/K/mol
282.63 K, Crystal 1 | 147.37 J/K/mol
283.47 K, Crystal 1 | 147.57 J/K/mol
284.3 K, Crystal 1 | 147.9 J/K/mol
285.15 K, Crystal 1 | 148.03 J/K/mol
285.99 K, Crystal 1 | 148.24 J/K/mol
286.83 K, Crystal 1 | 148.69 J/K/mol
287.67 K, Crystal 1 | 148.8 J/K/mol
288.49 K, Crystal 1 | 148.98 J/K/mol
289.33 K, Crystal 1 | 149.33 J/K/mol
290 K, Crystal 1 | 149.41 J/K/mol
290.17 K, Crystal 1 | 149.55 J/K/mol
291.01 K, Crystal 1 | 149.81 J/K/mol
291.85 K, Crystal 1 | 149.83 J/K/mol
292.69 K, Crystal 1 | 150.13 J/K/mol
293.53 K, Crystal 1 | 150.52 J/K/mol
294.38 K, Crystal 1 | 150.46 J/K/mol
295.22 K, Crystal 1 | 150.72 J/K/mol
296.07 K, Crystal 1 | 150.87 J/K/mol
296.92 K, Crystal 1 | 151.22 J/K/mol
297.77 K, Crystal 1 | 151.31 J/K/mol
298.15 K, Crystal 1 | 151.49 J/K/mol
298.61 K, Crystal 1 | 151.62 J/K/mol
299.46 K, Crystal 1 | 152.1 J/K/mol
300 K, Crystal 1 | 151.99 J/K/mol
300.74 K, Crystal 1 | 152.16 J/K/mol
302.38 K, Crystal 1 | 152.51 J/K/mol
304 K, Crystal 1 | 152.9 J/K/mol
305.63 K, Crystal 1 | 153.27 J/K/mol
307.25 K, Crystal 1 | 153.72 J/K/mol
308.87 K, Crystal 1 | 154.08 J/K/mol
310 K, Crystal 1 | 154.4 J/K/mol
310.45 K, Crystal 1 | 154.47 J/K/mol
312.03 K, Crystal 1 | 154.86 J/K/mol
313.62 K, Crystal 1 | 155.15 J/K/mol
315.2 K, Crystal 1 | 155.56 J/K/mol
316.77 K, Crystal 1 | 155.95 J/K/mol
318.35 K, Crystal 1 | 156.34 J/K/mol
319.87 K, Crystal 1 | 156.72 J/K/mol
320 K, Crystal 1 | 156.81 J/K/mol
321.41 K, Crystal 1 | 157.11 J/K/mol
322.95 K, Crystal 1 | 157.43 J/K/mol
324.49 K, Crystal 1 | 157.89 J/K/mol
325.96 K, Crystal 1 | 158.18 J/K/mol
327.48 K, Crystal 1 | 158.02 J/K/mol
328.97 K, Crystal 1 | 158.76 J/K/mol
330 K, Crystal 1 | 159.14 J/K/mol
330.46 K, Crystal 1 | 159.4 J/K/mol
331.95 K, Crystal 1 | 159.74 J/K/mol
333.42 K, Crystal 1 | 160.19 J/K/mol
334.89 K, Crystal 1 | 160.55 J/K/mol
